# From US20130102595A1 (Curis, Inc., priority 2011, published 2013)
# pIC50: −log10 of the molar value.
# Experiments:
# [1] = molecular target: T1, mTor serine/threonine protein kinase (Homo sapiens, UniProt P42345); test: mTor kinase radioisotope assay; format: biochemical; details: 70 uM ATP, 40 minutes; read-out: m-TOR IC50
# T1 construct: FLAG; made in house; host or cells: Baculovirus expression system in Sf21 cells
# In short: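 FLAG-tagged full-length recombinant human mTor from baculovirus/Sf21, incubated with p70S6K C-terminal fragment (2 mg/ml) and 70 uM ATP plus 33P-ATP tracer in 50 mM HEPES pH 7.5, 3 mM MnCl2, 40 min at room temperature. Phosphoric acid stop, filtermat capture, scintillation counting; IC50 from sigmoidal dose-response fit.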
# [2] = tested on: H292; test: Cell proliferation assay (CellTiter-Glo); format: cell-based; details: Homo sapiens, NCI-H292; NSCLC; 72 hours, 0.5% fetal bovine serum; read-out: antiproliferative activity IC50, H292
# In short: (§1)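 Cells seeded at 5,000 to 10,000 per well were exposed to a range of compound concentrations for 72 hours in 0.5% fetal bovine serum. Growth inhibition was then determined from ATP content by luciferase luminescence after a 30-minute lysis incubation.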
# [3] = tested on: SW403; test: Cell proliferation assay (CellTiter-Glo); format: cell-based; details: Homo sapiens, SW-403; Colon; 72 hours, 0.5% fetal bovine serum; read-out: antiproliferative activity IC50, SW403
# In short: as §1
# [4] = molecular target: T2, PI3Kγ (p120γ) (Homo sapiens, UniProt P48736); test: PI3Kγ ADP-Glo assay; format: biochemical; details: 20 μM PIP2, 10 μM ATP, 90 minutes
# T2 construct: His (N); made in house; host or cells: Baculovirus-infected Sf9 cells
# Experimental: (d) an In Vitro Assay which Determines the Ability of a Test Compound to Inhibit PI3Kγ.
# (§2) Activity of PI3Kγ was measured using ADP-Glo assay from Promega. PI3Kγ, N-terminal His-tagged recombinant full-length human p120γ (GenBank, Accession No. AF327656) was expressed in a Baculovirus infected Sf9 cell expression system. The ADP-Glo assay was performed to measure the amount of ADP generated from ATP hydrolysis coupled with PIP2 phosphorylation by the purified recombinant PI3Kγ (p110δ/p85α). PI3Kγ was incubated with 20 μM PIP2 substrate in the reaction buffer (10 mM Tris-HCl, pH 7.5, 50 mM NaCl, 5 mM MgCl2, 10 μM ATP and 0.5% DMSO) for 90 minutes at room temperature. The ADP generated was then detected by ADP-Glo assay from Promega, a luminescent ADP detection assay. The ADP-Glo assay is performed in two steps; first, after the kinase reaction, ADP-Glo Reagent is added to terminate the kinase reaction and deplete the remaining ATP. Second, the Kinase Detection Reagent is added to simultaneously convert ADP to ATP and allow the newly synthesized ATP to be measured using a luciferase/luciferin reaction.
# [5] = molecular target: T3, PI3Kδ (p110δ/p85α) (Homo sapiens, UniProt O00329); test: PI3Kδ ADP-Glo assay; format: biochemical; details: 20 μM PIP2, 10 μM ATP, 90 minutes
# T3 construct: GST (N); made in house; host or cells: Baculovirus-infected Sf9 cells
# Experimental: (c) an In Vitro Assay which Determines the Ability of a Test Compound to Inhibit PI3Kδ.
# as §2, with “PI3Kδ” for “PI3Kγ”, “PI3Kδ, a complex of” for “PI3Kγ,”, “GST-tagged” for “His-tagged”, “p110δ” for “p120γ”, “NM_005026) and untagged recombinant full length human p85α (GenBank Accession No. XM—043865) were co-expressed” for “AF327656) was expressed”
# [6] = molecular target: T4, PI3Kβ (p110β/p85α) (Homo sapiens, UniProt P42338); test: PI3Kβ ADP-Glo assay; format: biochemical; details: 20 μM PIP2, 10 μM ATP, 90 minutes
# T4 construct: His (N); made in house; host or cells: Baculovirus-infected Sf9 cells
# Experimental: (B) an In Vitro Assay which Determines the Ability of a Test Compound to Inhibit PI3Kβ.
# as §2, with “PI3Kβ” for “PI3Kγ”, “[…], a complex of” for “PI3Kγ,”, “p110β” for “p120γ”, “NM_006219) and untagged recombinant full length human p85α (GenBank Accession No. XM—043865) were co-expressed” for “AF327656) was expressed”, “PI3Kβ (p110β/p85α). PI3Kβ” for “PI3Kγ (p110δ/p85α). PI3Kγ”
# T2 sequence (P48736 whole entry): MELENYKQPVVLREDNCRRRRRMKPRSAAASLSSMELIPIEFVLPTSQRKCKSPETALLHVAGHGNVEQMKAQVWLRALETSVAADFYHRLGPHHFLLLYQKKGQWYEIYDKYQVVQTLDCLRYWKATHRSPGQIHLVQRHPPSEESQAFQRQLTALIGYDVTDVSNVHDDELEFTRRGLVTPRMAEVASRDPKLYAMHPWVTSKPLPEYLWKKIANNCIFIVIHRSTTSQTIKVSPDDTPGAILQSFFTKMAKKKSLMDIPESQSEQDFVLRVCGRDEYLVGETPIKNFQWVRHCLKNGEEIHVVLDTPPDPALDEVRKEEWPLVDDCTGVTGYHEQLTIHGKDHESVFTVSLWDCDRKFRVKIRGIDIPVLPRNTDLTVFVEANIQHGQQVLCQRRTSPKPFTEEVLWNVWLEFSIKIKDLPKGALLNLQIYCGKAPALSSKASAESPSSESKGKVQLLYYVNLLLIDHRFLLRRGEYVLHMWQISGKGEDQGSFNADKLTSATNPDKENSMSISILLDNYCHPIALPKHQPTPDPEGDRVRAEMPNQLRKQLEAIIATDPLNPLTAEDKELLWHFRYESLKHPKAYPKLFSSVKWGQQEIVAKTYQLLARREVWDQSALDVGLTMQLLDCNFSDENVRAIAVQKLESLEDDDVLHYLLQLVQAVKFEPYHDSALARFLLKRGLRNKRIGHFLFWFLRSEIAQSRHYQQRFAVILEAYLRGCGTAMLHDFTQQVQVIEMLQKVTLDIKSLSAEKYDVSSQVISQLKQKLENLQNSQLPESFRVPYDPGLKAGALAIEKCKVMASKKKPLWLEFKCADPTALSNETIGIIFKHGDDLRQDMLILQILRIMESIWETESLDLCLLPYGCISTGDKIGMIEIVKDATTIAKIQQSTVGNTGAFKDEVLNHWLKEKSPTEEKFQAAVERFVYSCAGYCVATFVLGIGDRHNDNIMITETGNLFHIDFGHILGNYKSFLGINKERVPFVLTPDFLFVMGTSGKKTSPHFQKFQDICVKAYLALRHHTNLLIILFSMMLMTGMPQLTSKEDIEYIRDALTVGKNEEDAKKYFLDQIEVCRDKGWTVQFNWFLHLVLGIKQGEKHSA
# T4 sequence (P42338 whole entry): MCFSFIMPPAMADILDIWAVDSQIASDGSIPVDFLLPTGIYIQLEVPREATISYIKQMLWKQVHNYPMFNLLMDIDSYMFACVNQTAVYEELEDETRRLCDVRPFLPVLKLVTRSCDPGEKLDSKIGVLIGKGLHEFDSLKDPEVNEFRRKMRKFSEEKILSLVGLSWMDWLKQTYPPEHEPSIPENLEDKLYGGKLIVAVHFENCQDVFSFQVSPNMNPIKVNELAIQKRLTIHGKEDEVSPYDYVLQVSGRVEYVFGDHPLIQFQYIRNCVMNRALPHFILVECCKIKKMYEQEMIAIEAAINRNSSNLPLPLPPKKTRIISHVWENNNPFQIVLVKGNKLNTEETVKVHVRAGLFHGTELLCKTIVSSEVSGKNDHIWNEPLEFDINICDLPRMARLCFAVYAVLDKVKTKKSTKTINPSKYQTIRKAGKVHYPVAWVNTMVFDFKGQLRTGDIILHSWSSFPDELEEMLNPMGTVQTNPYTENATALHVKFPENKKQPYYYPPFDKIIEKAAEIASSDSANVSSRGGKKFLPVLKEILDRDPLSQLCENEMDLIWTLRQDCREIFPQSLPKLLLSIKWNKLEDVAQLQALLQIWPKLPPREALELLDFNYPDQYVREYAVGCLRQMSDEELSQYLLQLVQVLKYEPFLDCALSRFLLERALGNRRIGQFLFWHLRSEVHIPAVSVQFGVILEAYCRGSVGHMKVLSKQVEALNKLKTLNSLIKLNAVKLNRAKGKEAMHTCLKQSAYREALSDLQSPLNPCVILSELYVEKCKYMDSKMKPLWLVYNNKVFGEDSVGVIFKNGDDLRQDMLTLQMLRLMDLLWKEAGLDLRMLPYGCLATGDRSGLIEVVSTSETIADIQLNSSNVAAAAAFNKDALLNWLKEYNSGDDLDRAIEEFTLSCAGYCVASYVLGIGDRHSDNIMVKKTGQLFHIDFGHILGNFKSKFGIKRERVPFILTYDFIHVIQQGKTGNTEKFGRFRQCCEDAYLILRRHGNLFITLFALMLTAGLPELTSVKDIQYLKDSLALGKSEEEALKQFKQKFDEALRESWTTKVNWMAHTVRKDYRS
# T4 sequence (P27986 whole entry partner): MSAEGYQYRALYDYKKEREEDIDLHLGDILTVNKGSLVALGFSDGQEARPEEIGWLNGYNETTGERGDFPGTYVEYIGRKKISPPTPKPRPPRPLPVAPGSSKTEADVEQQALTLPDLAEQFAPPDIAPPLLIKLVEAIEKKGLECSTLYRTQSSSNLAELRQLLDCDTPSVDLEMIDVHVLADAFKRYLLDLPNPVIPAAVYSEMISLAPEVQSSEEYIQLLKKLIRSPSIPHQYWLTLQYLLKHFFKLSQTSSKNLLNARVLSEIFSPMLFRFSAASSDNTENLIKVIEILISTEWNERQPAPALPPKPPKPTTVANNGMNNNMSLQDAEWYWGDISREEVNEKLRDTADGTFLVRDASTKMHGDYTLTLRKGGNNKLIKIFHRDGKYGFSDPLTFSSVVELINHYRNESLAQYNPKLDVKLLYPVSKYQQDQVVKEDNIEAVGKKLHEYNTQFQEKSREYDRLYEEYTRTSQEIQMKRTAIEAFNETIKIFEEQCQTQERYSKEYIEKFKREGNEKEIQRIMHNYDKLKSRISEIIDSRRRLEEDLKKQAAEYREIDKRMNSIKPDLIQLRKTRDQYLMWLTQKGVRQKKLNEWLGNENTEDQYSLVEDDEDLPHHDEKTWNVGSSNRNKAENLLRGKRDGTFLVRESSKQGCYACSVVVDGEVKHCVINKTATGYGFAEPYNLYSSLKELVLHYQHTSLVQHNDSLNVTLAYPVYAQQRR
# T3 sequence (O00329 whole entry): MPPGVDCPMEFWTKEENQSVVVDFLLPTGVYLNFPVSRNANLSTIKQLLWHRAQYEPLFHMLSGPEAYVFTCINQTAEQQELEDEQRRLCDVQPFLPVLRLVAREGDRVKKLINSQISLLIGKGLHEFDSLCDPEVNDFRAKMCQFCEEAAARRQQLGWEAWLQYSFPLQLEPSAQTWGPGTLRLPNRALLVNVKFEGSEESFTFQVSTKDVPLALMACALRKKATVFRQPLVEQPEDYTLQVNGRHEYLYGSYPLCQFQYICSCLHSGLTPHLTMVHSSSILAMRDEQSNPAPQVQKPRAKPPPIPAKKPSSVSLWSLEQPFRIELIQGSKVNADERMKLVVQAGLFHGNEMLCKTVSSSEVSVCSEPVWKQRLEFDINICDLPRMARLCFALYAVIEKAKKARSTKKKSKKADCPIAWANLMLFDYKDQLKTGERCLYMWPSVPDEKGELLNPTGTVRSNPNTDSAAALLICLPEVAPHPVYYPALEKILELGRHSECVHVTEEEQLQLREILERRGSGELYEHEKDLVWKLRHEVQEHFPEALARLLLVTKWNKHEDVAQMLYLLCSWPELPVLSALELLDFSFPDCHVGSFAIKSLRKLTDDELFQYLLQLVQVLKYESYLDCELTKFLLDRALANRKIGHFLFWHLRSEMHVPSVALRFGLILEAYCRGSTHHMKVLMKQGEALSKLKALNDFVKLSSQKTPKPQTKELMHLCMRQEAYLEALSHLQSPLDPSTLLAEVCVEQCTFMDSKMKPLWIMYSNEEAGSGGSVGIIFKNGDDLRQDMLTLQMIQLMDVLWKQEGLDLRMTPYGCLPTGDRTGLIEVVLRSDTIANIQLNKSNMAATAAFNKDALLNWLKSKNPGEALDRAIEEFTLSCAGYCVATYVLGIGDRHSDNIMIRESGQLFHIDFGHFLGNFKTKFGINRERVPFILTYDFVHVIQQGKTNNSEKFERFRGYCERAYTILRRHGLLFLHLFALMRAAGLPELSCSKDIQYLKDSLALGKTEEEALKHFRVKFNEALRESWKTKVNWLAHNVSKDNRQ
# T3 sequence (P27986 whole entry partner): as the sequence (P27986 whole entry partner) above
pIC50 [1],pIC50 [2],pIC50 [3],pIC50 [4],pIC50 [5],pIC50 [6],Structure (SMILES)
> 7.00,> 8.00,> 8.00,,,,"CN(Cc1cc2nc(-c3ccc(N)cc3)nc(N3CCOCC3)c2s1)c1ncc(C(=O)NO)cn1 [Compound 150, 2-(((2-(4-aminophenyl)-4-morpholinothieno[3,2-d]pyrimidin-6-yl)methyl)(methyl)amino)-N-hydroxypyrimidine-5-carboxamide]"
,,,> 7.00,> 7.00,> 7.00,"CN(Cc1cc2nc(-c3cccc4[nH]ncc34)nc(N3CCOCC3)c2s1)c1ncc(C(=O)NO)cn1 [Compound 54, 2-(((2-(1H-indazol-4-yl)-4-morpholinothieno[3,2-d]pyrimidin-6-yl)methyl)(methyl)amino)-N-hydroxypyrimidine-5-carboxamide]"
> 7.00,> 8.00,> 8.00,6.00 to 7.00,> 7.00,6.00 to 7.00,"CNc1ccc(-c2nc(N3CCOCC3)c3sc(CN(C)c4ncc(C(=O)NO)cn4)cc3n2)cn1 [Compound 111, N-Hydroxy-2-(methyl((2-(6-(methylamino)pyridin-3-yl)-4-morpholinothieno[3,2-d]pyrimidin-6-yl)methyl)amino)pyrimidine-5-carboxamide]"
